Assay results taken from patent publication US8252954B2, “Processes for the preparation of calixarene derivatives” (The Curators of The University of Missouri, priority 2007, dated 2012).

Legend:
[1] = tested on: Peripheral blood mononuclear cells (PBMC); test: Cell viability assay (MTS assay) on PBMC; format: cell-based, human; conditions: two fold dilutions starting from 10^−4M, FIG. 8 / FIG. 9
Procedure: Cytotoxicity of these calixarenes were conducted using Peripheral Blood Mononucleus Cell line (PBMC) which were extracted from subjects blood (50 ml sample). Each calixarene compound was tested on three subjects out of a pool of 5 people (all caucasian females of 20-25 years of age). The extracted cell content represent 1% of the blood sample and comprised of Lymphocyte (60%) and monocytes (10-15%). The experiment was conducted by incubating the cells in a 96 well plate in triplicate with the calixarenes for 24 hours at different concentrations at an estimated concentration of 100000 cells per well.
A pipeline was designed to obtain reliable preliminary toxicology data in vitro. The pipeline was designed to allow testing of any particles of interest within a short time frame. […]
PBMC were harvested using the Ficoll method. […] The cells are then suspended in freezing media (10% DMSO in HIFCS) at 10 million cells per ml and stored as 1 ml aliquots in liquid nitrogen until it is ready for use. […]
CellTitre 96© Aqueous One Solution Cell Proliferation Assay was used to measure cell viability. […] The PHA was added to trigger activation of lymphocytes which was hypothesised that it may alter the reading of the MTS assay. […] The plate is further incubated for another 4 hours and is read through a spectrophotometer at 490 nm. […]

[2] = tested on: Peripheral blood mononuclear cells (PBMC): lymphocytes and monocytes; test: 5 colour flow cytometry of PBMC after exposure to calixarenes; format: cell-based, human; conditions: 24 hours, 10^-4M, 2.5×10^-5M, 3.13×10^-6M
Procedure: A 5 colour flow cytometry based assay was done to complement the MTS assay to provide a better snapshot of the toxicology profile of the calixarenes. Four concentrations from the MTS assay graph results (Control, 1, 1/4 dilution and 1/32 dilution) were chosen to illustrate the differences in cell profiles after the exposure of the calixarenes. 500,000 cells in 0.5 ml was cultured with 50 μL of calixarenes in polypropylene tubes (BD Falcon, Sarstedt) for 24 hours at 37° C., 5% CO2, 10° angle with the lid loosely closed. Polypropylene tube cultures were chosen as it provides better yield of monocytes.
After the 24 hour incubation, a cell count was performed to ensure there were at least 200,000 cells in each sample. The cells were centrifuged at 400G for 8 minutes and washed twice with flow buffer (10% bovine serum albumin in 1×PBS) by centrifugation at 400G for 8 minutes. An antibody cocktail of 10 μL annexin V FITC (marker used to detect apoptosis of cells), 5 μL CD3 APC (marker for detection of T-cells), 2.5 μL CD14 PECy7 (marker for detection of monocytes), 5 μL HLA-DR PE (marker for detection of cell activation) and 5 μL 7-AAD (marker to detect cell death) in each tube was prepared. The cells were resuspended in 200 μL of 1× Annexin V binding buffer. 100 μL of the resuspended cells were added to flow tubes containing the antibody cocktail and was incubated at room temperature in the dark for at least 15 minutes. The samples were then read using BD FACS Canto flow cytometer within an hour of antibody incubation. The experiment was replicated in triplicates using PBMC from different individuals.
Lymphocyte and monocyte population characteristics are summarised in the graph in FIG. 8. Lymphocyte and monocyte population numbers are based on total population while apoptotic cells, dead cells, live cells etc are based on their respective populations. Lymphocytes normally make up 60% of total population. […] However, this is most likely due to total lysis of cells, which cannot be detected by dead cell marker. Monocytes normally make up 10-15% of total population. The culturing process seems to cause most monocytes to be apoptotic due to their fragile nature.
Phosphonated calix[5]arene was tested with flow cytometry at the following concentrations; 10^-4M, 2.5×10^-5M (1 in 4 dilution) and 3.13×10^-6M (1 in 32 dilution). Lymphocyte and monocyte population characteristics are summarised in the graph in FIG. 9. Lymphocyte and monocyte population numbers are based on total population while apoptotic cells, dead cells, live cells etc are based on their respective populations. Lymphocytes normally make up 60% of total population. […] However, this is most likely due to total lysis of cells, which cannot be detected by dead cell marker. Monocytes normally make up 10-15% of total population. Culturing process seems to cause most monocytes to be apoptotic due to their fragile nature and this finding is in line with our literature review. There is a decline in monocyte numbers with increasing concentration of this calixarene.

[3] = DMSO, room temperature, FIG. 5

Molecule	toxicity judged from cell viability (absorbance) [1]	monocyte numbers with increasing concentration [2]	proportion of dead lymphocytes with increasing concentration [2]	time over which nano-rafts dissociate into solvated monomeric units [3]	live monocytes population numbers with increasing concentration [2]
5,11,17,23-Tetra(dihydroxyphosphoryl)-25,26,27,28-tetrahydroxycalix[4]arene [phosphonated calix[4]arene]	no significant sign of toxicity	slight decline	seems to decline	36 h	–
O=P(O)(O)c1cc2c(O)c(c1)Cc1cc(P(=O)(O)O)cc(c1O)Cc1cc(P(=O)(O)O)cc(c1O)Cc1cc(P(=O)(O)O)cc(c1O)Cc1cc(P(=O)(O)O)cc(c1O)C2 [phosphonated calix[5]arene, 5,11,17,23,29-Penta(dihydroxyphosphoryl)-31,32,33,34,35-pentahydroxycalix[5] arene]	less toxicity with this calixarene than with sulphonated calixarenes	decline	seems to decline	–	seems to increase
